{"source": "patent US20220249394A1", "about": "(priority 2019, published 2022)", "key": {"[1]": {"test_system": "Neuro 2a (N2a) cells producing normal prion protein (PrP^C)", "assay_type": "cell-based, mouse", "settings": "24 hours culture with 0-40 mM HFIP, crystal violet staining, FIG. 1"}, "[2]": {"test_system": "ScNeuro 2a (ScN2a) cells producing abnormal prion protein (PrP^Sc)", "assay_type": "cell-based, mouse", "settings": "24 hours culture with 0-40 mM HFIP, crystal violet staining, FIG. 1"}, "[3]": {"target": "prion protein (PrP^C) in N2a cells (Mus musculus, UniProt P04925)", "sequence (P04925 23-230 limits assumed)": "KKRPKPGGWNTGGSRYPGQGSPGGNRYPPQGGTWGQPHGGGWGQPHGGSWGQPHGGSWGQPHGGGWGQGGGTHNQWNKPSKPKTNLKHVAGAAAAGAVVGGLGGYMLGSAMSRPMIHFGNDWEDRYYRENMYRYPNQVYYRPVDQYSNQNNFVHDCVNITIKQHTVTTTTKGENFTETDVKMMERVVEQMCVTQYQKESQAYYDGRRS", "assay_type": "cell-based", "settings": "6 mM HFIP for 24 hours, protease K 10 μg/ml 37° C. 30 minutes, Western blotting, FIG. 2 #1 to #4"}}}
{"compound": "OC(C(F)(F)F)C(F)(F)F", "note": "[HFIP, 1,1,1,3,3,3-hexafluoro-2-propanol]", "values": [{"measurement": "upper concentration limit of HFIP at which N2a cells can survive", "setting": "[1]", "result": 25, "unit": "mM"}, {"measurement": "upper concentration limit at which ScN2a cells can survive", "setting": "[2]", "result": 20, "unit": "mM"}, {"measurement": "degradation of protein by protease K", "setting": "[3]", "result": "degraded by protease K with or without the addition of HFIP"}]}
